Measured values reported in patent US10259815B2, “Gabaergic ligands and their uses” (UWM Research Foundation, Inc., priority 2015, dated 2019).
Entries after “also recorded” stand apart in the source; their conditions may differ.

What was measured:
Male Sprague-Dawley rats [1] = assay: scMET-induced seizure protection, rats; format: in vivo; settings: i.p. 30 minutes prior; pentylenetetrazole 35 mg/kg
Experimental: A 35 mg/kg subcutaneous dose of pentylenetetrazole was given and the percent outcome of seizure was recorded. Results were analyzed using ANOVA (Dunnett's test: *P<0.05).
Test subjects were given a test compound, followed by a 35 mg/kg dose of MET and observed for convulsions (FIG. 7).
Results were analyzed using ANOVA (Dunnett's test: *P<0.05).

Male Sprague-Dawley rats [2] = assay: von Frey filament test in spinal nerve ligated (SNL) rats; format: in vivo
Experimental: FIG. 11 is a graph of time versus withdrawal threshold for KRM-II-81, Gabapentin, and vehicle, showing the effect of KRM-II-81 on antihyperalgesia in the von Frey filament assay. Male Sprague-Dawley rats (n=5) were dosed i.p. either vehicle, KRM-II-81 (30 mg/kg), or gabapentin (50 mg/kg) and tested in the von Frey filament assay after undergoing SNL 90 days prior. Results were analyzed using ANOVA (Dunnett's test: *P<0.05).
The von Frey filament test is used to test for antihyperalgesia, or an increased sensitivity to pain. […] The von Frey filaments are used to apply pressure to the forelimbs of test subjects at set amounts. When pressure becomes too great, the forelimb is withdrawn and the amount of force applied recorded. The spinal nerve ligation induced hyperalgesia, reducing the amount of force a limb can take before being withdrawn.
Test compounds were given to test the effectiveness of combating the hyperalgesic effect of SNL. Male Sprague-Dawley rats went through SNL at least 90 days prior to the von Frey testing. Rats were first tested without given an injection to determine a baseline. Following baseline establishment, rats (n=5 for all groups) were dosed i.p. with vehicle (1% carboxymethyl cellulose), KRM-II-81 (30 mg/kg), or gabapentin (50 mg/kg). Subjects were then tested every hour for four hours to determine the antihyperalgesic effect of the test compounds. For testing, pressure using von Frey filaments was applied to the forelimb of the rat. Pressure was increased until the limb was withdrawn, and the amount of pressure was recorded.

Male NIH Swiss mice = assay: Marble burying assay (anxiolytic); format: in vivo
Experimental: Male NIH Swiss mice (n=10) were dosed i.p. with vehicle (1% carboxymethyl cellulose) or one of the test compounds (10 or 30 mg/kg) 30 minutes prior to being tested in the marble burying assay.
The marble burying assay is designed to measure the anxiolytic-effect of a compound. When mice are nervous, they will bury marbles. As there becomes a decrease in amount of marbles buried, the better anxiolytic effect of a compound.
The marble burying assay is used to determine the anxiolytic activity of a given compound. Mice are placed in a tub containing 20 marbles placed over a bed of sawdust. Defensive burying (Broekkamp 1986) is the natural reaction for the mice. When given an anxiolytic, such as diazepam, the mice are less likely to defensively bury the marbles.
Experiments were carried out by the methods described in Li et al. (Life Sciences 2006, 78, 1933-1939). Separate groups of mice were used in these experiments and were conducted in a dimly lit testing room. After 60 min acclimation to the experimental room, mice were placed in a 17×28×12 cm high plastic tub with […] sawdust shavings (Harlan Sani-Chips, Harlan-Teklad, Indianapolis, Ind., USA) on the floor, which was covered with 20 blue marbles (1.5 cm diameter) placed in the center. […] The number of marbles buried (⅔ covered with sawdust) was counted and submitted to inter-observer reliability assessment.

[3] = Single-dose pharmacokinetics and brain concentrations, IV and IP, rats; format: in vivo, Sprague-Dawley rats
Experimental: The single-dose pharmacokinetics were determined in femoral artery/vein cannulated Sprague-Dawley rats. The rats received a 1 mg/kg intravenous and 10 mg/kg oral gavage dose of compound. Blood samples were collected at 0.08 (IV only), 0.25, 0.5, 1, 2, 4, 8, 12, and 24 hours after initiation of compound administration. Plasma was obtained via centrifugation. Plasma samples were then analyzed by LC-MS, and pharmacokinetic parameters calculated using Watson (version 7.4; Thermo Fisher Scientific). Calculated parameters include clearance (Cl), volume of distribution (Vdss), area-under-the-curve (AUC), half-life (T½), maximum plasma concentration (Cmax), time of maximum concentration (Tmax), and bioavailability (% F).
Male Sprague-Dawley rats were given either a 1 mg/kg […] dose or 10 mg/kg i.p. dose. Plasma concentrations were taken at 0.08, 0.25, 0.5, 1.0, 2, 4, 8, 12, and 24 hours (three rats per time point for each dose).

## C#Cc1ccc2c(c1)C(c1ccccn1)=NCc1c(-c3cnco3)ncn1-2 [KRM-II-81, 5-(8-Ethynyl-6-(pyridin-2-yl)-4H-benzo[f]imidazo[1,5-a][1,4]diazepin-3-yl)oxazole]
Male Sprague-Dawley rats [1]
  dose achieving significant protection against scMET seizures: 30 mg/kg
Male Sprague-Dawley rats [2]; KRM-II-81 30 mg/kg at one hour, gabapentin 50 mg/kg
  statistical significance of antihyperalgesic effect: able to reach significance
Male Sprague-Dawley rats [2]; KRM-II-81 30 mg/kg, gabapentin 50 mg/kg i.p.
  antihyperalgesic activity, von Frey after SNL: active as antihyperalgesics
Male Sprague-Dawley rats [2]; from 1-2 hours, vehicle ˜5 g
  pain threshold (force before removing paw): ~12 g
Male NIH Swiss mice; 10 and 30 mg/kg i.p.
  sedation observed in marble burying assay: without observed signs of sedation
Male NIH Swiss mice; mouse, in vivo
  anxiolytic activity in marble burying assay: better anxiolytic than HZ-166; also recorded: good activity in the marble burying
[3]; 1 mg/kg IV dose in rat
  mean clearance: 21.7 mL/min/kg
[3]; 10 mg/kg IP dose in rat
  mean AUC: 16.5 µM·h
  mean IP T ½: 3.1 h
  mean bioavailability: 69%
[3]; 10 mg/kg IP dose in rat, plasma
  Cmax: 3.09 µM
[3]; Sprague-Dawley, plasma, 1 mg/kg IV dose in rat, read-out: mean T ½ (converted)
  half-life: 1.4 h
[3]; Sprague-Dawley, plasma, 1 mg/kg IV dose in rat, read-out: mean Vdss
  Vd: 1.4 L/kg
[3]; male, Sprague-Dawley, rat, brain, intraperitoneal, 10 mg/kg IP dose, 1 hour
  concentration at 1 h: 6.63 µM
[3]; male, Sprague-Dawley, rat, brain, intraperitoneal, 10 mg/kg IP dose, 4 hour
  concentration at 4 h: 2.05 µM
[3]; male, Sprague-Dawley, rat, brain/plasma (unbound), 10 mg/kg IP dose, 1 hour
  Kp uu at 1 h: 0.53
[3]; male, Sprague-Dawley, rat, brain/plasma (unbound), 10 mg/kg IP dose, 4 hour
  Kp uu at 4 h: 0.67
